Measured values taken from ChEMBL document CHEMBL4354835, “Selective Blockade of Neuronal BK (α + β4) Channels Preventing Epileptic Seizure” (J Med Chem, 2020).
Positions count from the first letter of the chain named. The source made the active and inactive calls. No cut-off for these calls is given here.

Tests used:
[1] = target: T1, KCNMA1/KCNMB4 (Rattus norvegicus) (UniProt Q62976+Q9ESK8); assay: Inhibition of BK alpha/beta-4 in PTZ-stimulated rat hippocampal pyramidal neurons assessed as increase in AHP size at 300 pA at -80mV holding potential measured after 10 mins by whole cell current clamp assay; type: protein-complex assay
[2] = target: T1, KCNMA1/KCNMB4 (Rattus norvegicus); assay: Inhibition of BK alpha/beta-4 in PTZ-stimulated rat hippocampal pyramidal neurons assessed as larger action potential width at 300 pA current injection at -80mV holding potential measured after 10 mins by whole cell current clamp assay; type: protein-complex assay
[3] = target: T1, KCNMA1/KCNMB4 (Rattus norvegicus); assay: Inhibition of BK alpha/beta-4 in PTZ-stimulatedrat hippocampal pyramidal neurons assessed as reduction in neuronal firing rate at -80mV holding potential in presence of 200 to 300 pA current injection measured after 10 mins by whole cell current clamp assay; type: protein-complex assay
[4] = species on record: Rattus norvegicus; assay: Inhibition of C-Fos expression in PTZ-induced epileptic seizures Sprague-Dawley rat model assessed as inhibition of FLI-positive pyramidal neurons in CA3 region of ipsilateral hippocampus at 10 uM compound infused into hippocampal region and 10 mins later injected with PTZ and measured after 2 hrs by immunohistochemistry; type: functional, organism-based
[5] = target: T2, Calcium-activated potassium channel subunit beta-4 (Homo sapiens) (UniProt Q86W47); assay: Binding affinity to 15N-labelled human BK beta4 (45 to 166 residues) at compound: protein mole ratio of 1:4 by 1H-15N HSQC NMR spectroscopy
T2 sequence (whole entry): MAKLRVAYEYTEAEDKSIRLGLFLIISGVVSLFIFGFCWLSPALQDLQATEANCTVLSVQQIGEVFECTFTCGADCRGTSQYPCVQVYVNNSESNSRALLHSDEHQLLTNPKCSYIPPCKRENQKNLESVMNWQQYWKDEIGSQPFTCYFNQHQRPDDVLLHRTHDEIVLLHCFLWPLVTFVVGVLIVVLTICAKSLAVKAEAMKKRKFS

[6] = target: Calcium-activated potassium channel subunit beta-4 (Homo sapiens, UniProt Q86W47, Q124A); assay: Binding affinity to NT-495 fluorophore reagent labelled human BK beta4 Q124A mutant incubated for 30 mins by microscale thermophoresis assay
[7] = tested on: T3, Calcium-activated potassium channel subunit beta-4 (Homo sapiens), Q86W47 [E122K]; assay: Binding affinity to NT-495 fluorophore reagent labelled human BK beta4 E122K mutant incubated for 30 mins by microscale thermophoresis assay
T3 sequence (whole entry): T2 sequence (whole entry) with E122K

[8] = species on record: Rattus norvegicus; assay: (§1) Neuroprotective activity in PTZ-induced epileptic seizure Sprague-Dawley rat model assessed as inhibition of hippocampal destruction by measuring increase in Nissl stained pyramidal neurons in contralateral hippocampus CA1 region compound infused into hippocampal region and 10 mins later injected with PTZ and measured after 3 days by Nissl staining based microscopic analysis; type: functional, organism-based
[9] = species on record: Rattus norvegicus; assay: Anticonvulsant activity against PTZ-induced epileptic seizure Sprague-Dawley rat model assessed as mortality rate compound infused into hippocampal region and 10 mins later injected with PTZ and measured for 2 hrs post PTZ-stimulation (reference value: 33.33%); type: functional
[10] = target: T1, KCNMA1/KCNMB4 (Rattus norvegicus); assay: Inhibition of BK alpha/beta-4 in PTZ-stimulated rat hippocampal pyramidal neurons assessed as appearance of more action potential failures at -80mV holding potential measured after 10 mins during 300pA current injection by whole cell current clamp assay; type: protein-complex assay
[11] = target: T4, Calcium-activated potassium channel subunit beta-4 (Homo sapiens, UniProt Q86W47); assay: Binding affinity to NT-495 fluorophore reagent labelled human BK beta4 (45 to 166 residues) incubated for 30 mins by microscale thermophoresis assay; details: read-out: Kd
T4 sequence (Q86W47 whole entry): T2 sequence (whole entry)

[12] = species on record: Rattus norvegicus; assay: Anticonvulsant activity against PTZ-induced epileptic seizure Sprague-Dawley rat model assessed as latency time of seizures compound infused into hippocampal region and 10 mins later injected with PTZ and measured for 2 hrs post PTZ-stimulation (reference value: 108.5 +/- 8.63 sec); type: functional
[13] = species on record: Homo sapiens; assay: Selectivity ratio of compound Kd for NT-495 fluorophore reagent labelled human BK beta4 E104K mutant to compound Kd for NT-495 fluorophore reagent labelled human BK beta4 (45 to 166 residues) by microscale thermophoresis assay
[14] = species on record: Homo sapiens; assay: Inhibition of human BK alpha/human beta4 E122K mutant expressed in HEK293T cells assessed as K+ fractional outward current at 10 uM at -80 mV holding potential by whole cell patch clamp technique relative to control; type: cell-based
[15] = species on record: Homo sapiens; assay: Inhibition of human BK alpha/human beta-4 E128K mutant expressed in HEK293T cells assessed as K+ fractional outward current at 10 uM at -80 mV holding potential by whole cell patch clamp technique relative to control; type: cell-based
[16] = target: T1, KCNMA1/KCNMB4 (Rattus norvegicus); assay: Inhibition of BK alpha/beta-4 in PTZ-stimulated rat hippocampal pyramidal neurons assessed as slower decay of after hyperpolarization at 300 pA at -80mV holding potential measured after 10 mins by whole cell current clamp assay; type: protein-complex assay
[17] = species on record: Rattus norvegicus; assay: Effect on neuronal network in PTZ-induced epileptic seizures Sprague-Dawley rat model assessed as reduced total PSD frequency waves compound infused into hippocampal region and 10 mins later injected with PTZ and measured after 2 hrs by power spectral density analysis; type: functional, organism-based
[18] = target: T1, KCNMA1/KCNMB4 (Rattus norvegicus); assay: Inhibition of BK alpha/beta-4 in PTZ-stimulated rat hippocampal pyramidal neurons assessed as longer interval of interspike at -80mV holding potential measured after 10 mins during 300pA current injection by whole cell current clamp assay; type: protein-complex assay
[19] = species on record: Rattus norvegicus; assay: Inhibition of field potential response in PTZ-induced epileptic seizure Sprague-Dawley rat model compound infused into hippocampal region and 10 mins later injected with PTZ and measured after 2 hrs by microarray electrode based analysis; type: functional, organism-based
[20] = species on record: Rattus norvegicus; assay: Effect on neuronal network in PTZ-induced epileptic seizures Sprague-Dawley rat model assessed as lowered PSD at gamma wave band compound infused into hippocampal region and 10 mins later injected with PTZ and measured after 2 hrs by power spectral density analysis; type: functional, organism-based
[21] = target: T5, KCNMA1/KCNMB4 (Homo sapiens, UniProt Q12791+Q86W47); assay: Inhibition of human BK alpha/beta4 channel expressed in HEK293T cells assessed as K+ outward current fraction at 10 uM at -80 mV holding potential by whole cell patch clamp method relative to control; type: cell-based
[22] = species on record: Rattus norvegicus; assay: as §1, with “CA3” for “CA1”; type: functional, organism-based
[23] = species on record: Rattus norvegicus; assay: Anticonvulsant activity against PTZ-induced epileptic seizure Sprague-Dawley rat model assessed as duration of seizure compound infused into hippocampal region and 10 mins later injected with PTZ and measured for 2 hrs post PTZ-stimulation (reference value: 376 +/- 76.43 sec); type: functional
[24] = target: Calcium-activated potassium channel subunit beta-4 (Homo sapiens, UniProt Q86W47, E104K); assay: Binding affinity to NT-495 fluorophore reagent labelled human BK beta4 E104K mutant incubated for 30 mins by microscale thermophoresis assay
[25] = species on record: Rattus norvegicus; assay: Effect on neuronal network in PTZ-induced epileptic seizures Sprague-Dawley rat model assessed as lowered PSD at theta wave band compound infused into hippocampal region and 10 mins later injected with PTZ and measured after 2 hrs by power spectral density analysis; type: functional, organism-based
[26] = target: T5, KCNMA1/KCNMB4; assay: Inhibition of human BK alpha/beta4 channel expressed in HEK293T cells assessed as inhibition of K+ outward current fraction at -80 mV holding potential by whole cell patch clamp technique; type: cell-based

Sequence of Calcium-activated potassium channel subunit beta-4 (Homo sapiens, UniProt Q86W47, E104K) (Q86W47 whole entry E104K, the tested form may be a part): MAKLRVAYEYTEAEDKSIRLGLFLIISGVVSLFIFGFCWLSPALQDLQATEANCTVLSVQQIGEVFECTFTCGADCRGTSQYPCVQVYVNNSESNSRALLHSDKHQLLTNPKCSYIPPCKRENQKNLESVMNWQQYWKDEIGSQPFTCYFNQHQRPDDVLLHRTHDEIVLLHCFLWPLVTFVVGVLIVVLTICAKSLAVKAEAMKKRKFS
Sequence of Calcium-activated potassium channel subunit beta-4 (Homo sapiens, UniProt Q86W47, Q124A) (Q86W47 whole entry Q124A): as the sequence (Q86W47 whole entry E104K, the tested form may be a part) above, with K104E, Q124A counted along it
T5 sequence (Q12791 whole entry, one chain of several): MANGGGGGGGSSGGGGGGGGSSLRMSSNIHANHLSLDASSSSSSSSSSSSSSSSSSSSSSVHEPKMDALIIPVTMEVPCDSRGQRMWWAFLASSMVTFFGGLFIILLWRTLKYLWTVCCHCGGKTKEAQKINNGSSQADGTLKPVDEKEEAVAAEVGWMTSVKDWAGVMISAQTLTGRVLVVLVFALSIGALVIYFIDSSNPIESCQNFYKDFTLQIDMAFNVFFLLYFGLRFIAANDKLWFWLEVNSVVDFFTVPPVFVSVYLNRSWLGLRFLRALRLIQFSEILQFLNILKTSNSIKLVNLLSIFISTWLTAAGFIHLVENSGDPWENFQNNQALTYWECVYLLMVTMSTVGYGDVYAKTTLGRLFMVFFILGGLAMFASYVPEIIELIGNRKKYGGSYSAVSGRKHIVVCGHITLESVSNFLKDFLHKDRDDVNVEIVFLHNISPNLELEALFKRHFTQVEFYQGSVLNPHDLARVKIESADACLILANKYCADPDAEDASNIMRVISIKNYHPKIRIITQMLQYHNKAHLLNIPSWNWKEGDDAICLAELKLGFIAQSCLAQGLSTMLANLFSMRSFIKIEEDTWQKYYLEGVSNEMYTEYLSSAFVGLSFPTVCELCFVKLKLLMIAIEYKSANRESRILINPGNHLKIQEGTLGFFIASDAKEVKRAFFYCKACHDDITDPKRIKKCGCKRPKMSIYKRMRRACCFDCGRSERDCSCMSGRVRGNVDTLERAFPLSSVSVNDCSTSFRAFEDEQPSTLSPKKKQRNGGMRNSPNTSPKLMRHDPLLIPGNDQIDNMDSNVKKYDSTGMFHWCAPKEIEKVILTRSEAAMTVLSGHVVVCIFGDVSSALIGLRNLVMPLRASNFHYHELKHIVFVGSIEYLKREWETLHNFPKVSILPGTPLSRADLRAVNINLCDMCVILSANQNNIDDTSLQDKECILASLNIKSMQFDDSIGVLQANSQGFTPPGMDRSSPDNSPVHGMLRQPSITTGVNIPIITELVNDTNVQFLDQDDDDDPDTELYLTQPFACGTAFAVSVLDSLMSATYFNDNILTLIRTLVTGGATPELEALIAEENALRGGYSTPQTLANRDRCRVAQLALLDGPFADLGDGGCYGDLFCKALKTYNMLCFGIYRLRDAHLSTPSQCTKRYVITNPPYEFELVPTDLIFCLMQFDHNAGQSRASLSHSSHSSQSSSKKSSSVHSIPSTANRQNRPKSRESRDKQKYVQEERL

For `CC[C@H](C)[C@H](NC(=O)[C@H](CC(C)C)NC(=O)CNC(=O)[C@H](Cc1ccccc1)NC(=O)[C@H](CO)NC(=O)CN)C(=O)N[C@@H](CC(=O)O)C(=O)N[C@H](C(=O)N[C@@H](CCCCN)C(=O)N[C@H]1CSSC[C@@H]2NC(=O)[C@H](CCCCN)NC(=O)CNC(=O)[C@H](CCC(N)=O)NC(=O)CNC(=O)[C@H](CO)NC(=O)CNC(=O)[C@H]([C@@H](C)O)NC(=O)[C@H](C(C)C)NC(=O)[C@H](CCCCN)NC(=O)[C@H](CCCCN)NC(=O)[C@@H]3CSSC[C@@H](C(=O)N[C@@H](Cc4ccc(O)cc4)C(=O)O)N[C@@H](CCCNC(=N)N)C(=O)[C@H](CSSC[C@H](NC(=O)[C@H](CCC(=O)O)NC(=O)[C@H](CO)NC(=O)[C@H](CO)NC(=O)[C@H](C)NC(=O)[C@H](Cc4ccccc4)NC1=O)C(=O)N[C@@H](Cc1c[nH]c4ccccc14)C(=O)N[C@@H]([C@@H](C)O)C(=O)N[C@@H](C)C(=O)N3)N[C@@H](CCC(N)=O)C(=O)NC(=O)[C@H](CC(N)=O)NC(=O)[C@H](CC(N)=O)NC(=O)[C@H](CCC(N)=O)NC2=O)C(C)C`, the inhibition [1] was “Active”, the inhibition [2] was “Active” and the inhibition [3] was “Active”. The inhibition [4] was “Active”, the Activity [5] was “Active” and the Kd [6] was 975 µM. For the same compound, the Activity [7] was “inactive”, the Activity [8] was “Active” and the mortality [9] was 0%. The inhibition [10] was “Active”, the Kd [11] was 511 µM and the Time [12] was 378.5 s. It also gave a Selectivity ratio [13] of 1.4, a Ratio [14] of 0.88 and a Ratio [15] of 0.75. For the same compound, the inhibition [16] was “Active”, the inhibition [17] was “Active” and the inhibition [18] was “Active”. For the same compound, the inhibition [19] was “Active”, the Activity [20] was “Active” and the Ratio [21] was 0.33. The Activity [22] was “Active”, the Time [23] was 198 s and the Kd [24] was 782 µM. For the same compound, the Activity [25] was “Active” and the IC50 [26] was 602 nM.
